Structures can show the parent of a compound that is named as a salt.
System: Passive Cutaneous Anaphylaxis
Assay: Passive Cutaneous Anaphylaxis (PCA) Assay, in vivo anti-allergic activity
Set-up: species or system rat
Details: 10 mg/kg, p.o.; oral administration 30 minutes before ovalbumin challenge; blued area vs control
Procedure: Passive Cutaneous Anaphylaxis (PCA) Assay
Representative compounds of the present invention were tested comparatively with cromoglycate to determine in vivo anti-allergic activity. The anti-allergic properties were ascertained in rats by the Passive Cutaneous Anaphylaxis test (PCA) essentially as described by Goose and Blair, Immunology, 16: 749-760 (1969).
Rat serum was diluted so that skin reactions with diameters between 10 and 15 mm in unsensitized rats were produced. The PCA test was performed in duplicate by injecting 0.1 ml of this antiserum dilution on each side of the shaved back of rats. Rats so treated were injected intravenously (i.v.) twenty-four hours later with 0.02 mg ovalbumin in 0.5 ml of 1% Evans Blue solution within five minutes after intravenous administration or 30 minutes after oral administration of the test compounds. Thirty minutes after the ovalbumin challenge the rats were killed by CO2 -asphyxiation, and the skin was reflected. The diameters, in millimeters, of the blued areas were measured and the mean diameter was determined. The circular area was calculated, and the mean area in square millimeters of the control group was considered as 100%. The results of the compound test groups were expressed as a percentage change from these control values. From dose response curves the dose reducing the size of the blued area by 50% (ED50) was estimated.

Which “% Inhibition” value does the source give for CCOC(=O)C(=O)Nc1cc(C=Cc2ccc(Cl)nn2)cc(NC(=O)C(=O)OCC)c1Cl [Example 37, Diethyl 2-(6-chloropyridazin-3-yl)ethenyl (4-chlorophenyl)-3,5dioxamate] here?
Its value is 54%.

Same assay, conditions: 10 mg/kg, p.o.; repeat test

With O=C(O)C(=O)Nc1cccc(C=Cc2ccnc(NC(=O)C(=O)O)n2)c1 [Example 29, 2-(2-Carboxycarbonylamino-pyrimidin-4-yl)ethenyl-phenyl-3 oxamic acid tetra-sodium salt di-hydrate] as the molecule, how does the “% Inhibition (repeat)” value read?
The value was 2%.

Same assay, conditions: Rattus norvegicus, 0.5 h; 3 mg/kg, i.v.; ovalbumin challenge within five minutes after intravenous administration

Which inhibition in vivo at 3 mg/kg does the source give for O=C(O)C(=O)Nc1ccc(C=Cc2ccncn2)cc1 [Example 2, 2-(4-Pyrimidinyl)ethenylphenyl-4 oxamic acid ethanolamine salt] here?
The inhibition in vivo at 3 mg/kg was 63%.

Same assay, conditions: Rattus norvegicus, 0.5 h; 10 mg/kg, p.o.; oral administration 30 minutes before ovalbumin challenge; blued area vs control

With CCOC(=O)C(=O)Nc1ccccc1C=Cc1ccncn1 [Example 6, Ethyl 2-(4-pyrimidinyl)ethenylphenyl-2 oxamate] as the molecule, how does the inhibition in vivo at 10 mg/kg read?
Its inhibition in vivo at 10 mg/kg is 20%.

Which inhibition in vivo at 10 mg/kg does the source give for CCOC(=O)C(=O)Nc1cc(C=Cc2ccncn2)ccc1OCCN(C)C [Example 11, Ethyl 2-(4-pyrimidinyl)ethenyl-4-N,N--dimethylaminoethoxyphenyl-3 oxamate] here?
Its inhibition in vivo at 10 mg/kg is 9%.

For CCOC(=O)C(=O)Nc1cccc(C=Cc2ccnc(NC(C)=O)n2)c1 [Example 16, Ethyl 2-(2-acetamidopyrimidin-4-yl)ethenylphenyl-3 oxamate], which inhibition in vivo at 10 mg/kg is on record?
The inhibition in vivo at 10 mg/kg was 42%.

For CC(=O)Nc1nccc(C=Cc2cccc(NC(=O)C(=O)O)c2)n1 [Example 17, 2-(2-Acetamidopyrimidin-4-yl)ethenylphenyl-3 oxamic acid tromethane salt], which inhibition in vivo at 10 mg/kg is on record?
The inhibition in vivo at 10 mg/kg was 37%.

Which inhibition in vivo at 10 mg/kg does the source give for O=C(O)C(=O)Nc1ccc(C=Cc2cccnn2)cc1 [Example 19, 2-(3-Pyridazinyl)ethenylphenyl-4 oxamic acid ethanolamine salt] here?
The inhibition in vivo at 10 mg/kg was 0%.

With CCOC(=O)C(=O)Nc1cccc(C=Cc2cc(NC(=O)C(=O)OCC)nc(C)n2)c1 [Example 26, Ethyl 2-(2-methyl-6-ethoxyoxalyl-aminopyrimidin-4-yl)-ethenylphenyl-3 oxamate hemihydrate] as the molecule, how does the inhibition in vivo at 10 mg/kg read?
The inhibition in vivo at 10 mg/kg was 64%.

For Cc1nc(C=Cc2cccc(NC(=O)C(=O)O)c2)cc(NC(=O)C(=O)O)n1 [Example 27, 2-(2-Methyl-6-carboxycarbonyl-aminopyrimidin-4-yl)-ethenylphenyl-3 oxamic acid di-tromethane salt], which inhibition in vivo at 10 mg/kg is on record?
Its inhibition in vivo at 10 mg/kg is 0%.

With CCOC(=O)C(=O)Nc1cccc(C=Cc2ccnc(NC(=O)C(=O)OCC)n2)c1 [Example 28, Ethyl 2-(2-ethoxyoxalylamino-pyrimidin-4-yl)ethenyl-phenyl-3 oxamate] as the molecule, how does the inhibition in vivo at 10 mg/kg read?
The inhibition in vivo at 10 mg/kg was 5%.

Which inhibition in vivo at 10 mg/kg does the source give for O=C(O)C(=O)Nc1cccc(C=Cc2ccnc(NC(=O)C(=O)O)n2)c1 [Example 29, 2-(2-Carboxycarbonylamino-pyrimidin-4-yl)ethenyl-phenyl-3 oxamic acid tetra-sodium salt di-hydrate] here?
Its inhibition in vivo at 10 mg/kg is 67%.

For CCOC(=O)C(=O)Nc1ccc(C=Cc2nccnc2CC)cc1 [Example 30, Ethyl 2-(3-ethylpyrazin-2-yl)ethenylphenyl-4 oxamate], which inhibition in vivo at 10 mg/kg is on record?
Its inhibition in vivo at 10 mg/kg is 6%.

Which inhibition in vivo at 10 mg/kg does the source give for CCc1nccnc1C=Cc1ccc(NC(=O)C(=O)O)cc1 [Example 31, 2-(3-Ethylpyrazin-2-yl)ethenyl-phenyl-4 oxamic acid ethanolamine salt] here?
The inhibition in vivo at 10 mg/kg was 15%.

For CCOCCOC(=O)C(=O)Nc1ccc(C=Cc2cnccn2)cc1 [Example 32, Ethoxyethyl 2-(2-pyrazinyl)ethenylphenyl-4 oxamate], which inhibition in vivo at 10 mg/kg is on record?
The inhibition in vivo at 10 mg/kg was 46%.

For CCOCCOC(=O)C(=O)Nc1ccc(C=Cc2cc(N)nc(C)n2)cc1 [Example 33, Ethoxyethyl 2-(2-methyl-6-aminopyrimidin-4-yl)-ethenylphenyl-4 oxamate hemihydrate], which inhibition in vivo at 10 mg/kg is on record?
Its inhibition in vivo at 10 mg/kg is 52%.

Same assay, conditions: Rattus norvegicus, iv; ovalbumin challenge within five minutes; estimated from dose response curves; read-out: ED50 (dose reducing the size of the blued area by 50%)

For Cc1nc(C=Cc2cccc(NC(=O)C(=O)O)c2)cc(NC(=O)C(=O)O)n1 [Example 27, 2-(2-Methyl-6-carboxycarbonyl-aminopyrimidin-4-yl)-ethenylphenyl-3 oxamic acid di-tromethane salt], which ED50 is on record?
The ED50 was 0.03 mg/kg.

With O=C(O)C(=O)Nc1ccc(C=Cc2cnccn2)c(NC(=O)C(=O)O)c1 [Example 35, 2-(2-Pyrazinyl)ethenylphenyl-2,4 dioxamic acid di-ethanolamine salt] as the molecule, how does the ED50 read?
The ED50 was 0.53 mg/kg.

Which ED50 does the source give for O=C(O)C(=O)Nc1ccc(C=Cc2ccncn2)c(NC(=O)C(=O)O)c1 [Example 36, 2-(4-Pyrimidinyl)ethenylphenyl-2,4 dioxamic acid di-ethanolamine salt] here?
Its ED50 is 0.05 mg/kg.

Same assay, conditions: Rattus norvegicus, po; 30 minutes before ovalbumin challenge; estimated from dose response curves; read-out: ED50 (dose reducing the size of the blued area by 50%)

With CCOC(=O)C(=O)Nc1ccc(C=Cc2ccncn2)cc1 [Example 1, Ethyl 2-(4-pyrimidinyl)ethenylphenyl-4 oxamate] as the molecule, how does the ED50 read?
Its ED50 is 1.4 mg/kg.

For CCOC(=O)C(=O)Nc1ccc(C=Cc2ccnc(NC(=O)C(=O)OCC)n2)cc1 [Example 3, Ethyl 2-(2-ethoxyoxalylaminopyrimidin-4-yl)-ethenylphenyl-4 oxamate], which ED50 is on record?
The ED50 was 10 mg/kg.

For CCOC(=O)C(=O)Nc1cccc(C=Cc2ccncn2)c1 [Example 4, Ethyl 2-(4-pyrimidinyl)ethenylphenyl-3 oxamate], which ED50 is on record?
The ED50 was 2.8 mg/kg.

For O=C(O)C(=O)Nc1cccc(C=Cc2ccncn2)c1 [Example 5, 2-(4-Pyrimidinyl)ethenylphenyl-3 oxamic acid ethanolamine salt], which ED50 is on record?
The ED50 was 12.3 mg/kg.

With O=C(O)C(=O)Nc1ccccc1C=Cc1ccncn1 [Example 7, 2-(4-Pyrimidinyl)ethenylphenyl-2 oxamic acid ethanolamine salt] as the molecule, how does the ED50 read?
Its ED50 is 8 mg/kg.

With CCOC(=O)C(=O)Nc1ccc(C=Cc2ccncn2)c(O)c1 [Example 8, Ethyl 2-(4-pyrimidinyl)ethenyl-2-hydroxyphenyl-4 oxamate] as the molecule, how does the ED50 read?
The ED50 was 4.5 mg/kg.

For CCOC(=O)C(=O)Nc1ccc(C=Cc2ccncn2)c(NC(=O)C(=O)OCC)c1 [Example 12, Diethyl 2-(4-pyrimidinyl)ethenylphenyl-2,4-dioxamate], which ED50 is on record?
Its ED50 is 2 mg/kg.

With CCOC(=O)C(=O)Nc1ccc(C=Cc2cc(OCC)nc(OCC)n2)cc1 [Example 13, Ethyl 2-(2,6-diethoxypyrimidin-4-yl)ethenylphenyl-4 oxamate] as the molecule, how does the ED50 read?
Its ED50 is 30 mg/kg.

For CCOC(=O)C(=O)Nc1ccc(C=Cc2cc(N)nc(C)n2)cc1 [Example 14, Ethyl 2-(2-methyl-6-aminopyrimidin-4-yl)ethenyl phenyl-4 oxamate], which ED50 is on record?
Its ED50 is 10 mg/kg.

For CCOC(=O)C(=O)Nc1ccc(C=Cc2cc(C)ncn2)cc1 [Example 15, Ethyl 2-(6-methylpyrimidin-4-yl)ethenylphenyl-4 oxamate], which ED50 is on record?
Its ED50 is 1.1 mg/kg.

For CCOC(=O)C(=O)Nc1ccc(C=Cc2cccnn2)cc1 [Example 18, Ethyl 2-(3-pyridazinyl)ethenylphenyl-4 oxamate], which ED50 is on record?
Its ED50 is 1 mg/kg.

Which ED50 does the source give for CCOC(=O)C(=O)Nc1ccc(C=Cc2cnccn2)cc1 [Example 20, Ethyl 2-(2-pyrazinyl)ethenylphenyl-4 oxamate] here?
The ED50 was 4.6 mg/kg.

For O=C(O)C(=O)Nc1ccc(C=Cc2cnccn2)cc1 [Example 21, 2-(2-Pyrazinyl)ethenylphenyl-4 oxamic acid sodium salt], which ED50 is on record?
The ED50 was 10 mg/kg.

With CCOC(=O)C(=O)Nc1cccc(C=Cc2cnccn2)c1 [Example 22, Ethyl 2-(2-pyrazinyl)ethenylphenyl-3 oxamate] as the molecule, how does the ED50 read?
Its ED50 is 4 mg/kg.

For O=C(O)C(=O)Nc1cccc(C=Cc2cnccn2)c1 [Example 23, 2-(2-Pyrazinyl)ethenylphenyl-3 oxamic acid ethanolamine salt], which ED50 is on record?
The ED50 was < 1 mg/kg.

Which ED50 does the source give for CCOC(=O)C(=O)Nc1ccc(C=Cc2cc(NC(=O)C(=O)OCC)nc(C)n2)cc1 [Example 24, Ethyl 2-(2-methyl-6-ethoxyoxalylaminopyrimidin-4-yl)-ethenylphenyl-4 oxamate] here?
Its ED50 is 0.3 mg/kg.

For Cc1nc(C=Cc2ccc(NC(=O)C(=O)O)cc2)cc(NC(=O)C(=O)O)n1 [Example 25, 2-(2-Methyl-6-carboxycarbonylaminopyrimidin-4-yl)-ethenylphenyl-4 oxamic acid hydrate diethanolamine salt], which ED50 is on record?
The ED50 was 4 mg/kg.

With CCOC(=O)C(=O)Nc1cccc(C=Cc2cc(NC(=O)C(=O)OCC)nc(C)n2)c1 [Example 26, Ethyl 2-(2-methyl-6-ethoxyoxalyl-aminopyrimidin-4-yl)-ethenylphenyl-3 oxamate hemihydrate] as the molecule, how does the ED50 read?
The ED50 was < 10 mg/kg.

Same assay, conditions: p.o.; 30 minutes before ovalbumin challenge; estimated from dose response curves

With O=C(O)c1cc(=O)c2c(OCC(O)COc3cccc4oc(C(=O)O)cc(=O)c34)cccc2o1 [Cromoglycate] as the molecule, how does the “ED50 (dose reducing the size of the blued area by 50%)” value read?
The value was “Inactive”.

Which “ED50 (dose reducing the size of the blued area by 50%)” value does the source give for “Ethyl 2-(4-pyrimidinyl)ethenyl-6-chlorophenyl-3 oxamate [Example 9]” here?
The value was 2 mg/kg, p.o.

System: not given
Assay: not given
Details: given orally; cited from earlier work

With O=C(O)c1cc(=O)c2c(OCC(O)COc3cccc4oc(C(=O)O)cc(=O)c34)cccc2o1 [Cromoglycate] as the molecule, how does the “antiallergic activity when given orally” value read?
Its value is “not active”.

Same assay, conditions: inhalation as a solid; cited from earlier work

For O=C(O)c1cc(=O)c2c(OCC(O)COc3cccc4oc(C(=O)O)cc(=O)c34)cccc2o1 [Cromoglycate], which “bronchodilator when given by inhalation as a solid” value is on record?
Its value is “effective”.

Reference: US4681884A, “Diazine-ethenylphenyl oxamic acids and esters and salts thereof” (Boehringer Ingelheim Pharmaceuticals, Inc., priority 1985, dated 1987)
